From patent publication US4015974A, “Amido phosphorothiolates” (priority 1972, dated 1977)

Assays:
Type in all cases: in vivo
[1] = system: common lambsquarter (Chenopodium album); test: Pre-emergence application, herbicidal effect on common lambsquarter (Table 1); design: key: 0: not damaged; 5: completely killed; settings: 20 days after application, score 0-5
Source text: (§1) Seeds of barnyard grass (Echinochloa crus-galli) and large crabgrass (Digitaria sanguinalis) as representatives of grassy weeds and those of radish, redroot pigweed (Amaranthus retroflexus), common purslane (Portulaca oleracea) and common lambsquarter (Chenopodium album) as representatives of broad-leaved weeds were individually sowed in flower pots of about 10 cm. in diameter. After covering the seeds with soil, test compounds as shown in Table 1 were individually applied to the soil treatment. Thereafter the plants were grown in a green house and 20 days after application the herbicidal effects of the compounds were observed, the results of which are as shown in Table 1.
(§2) Herbicidal effects were evaluated by the numerals ranging from 0 (not damaged) to 5 (completely killed). All the test compounds were used in the form of wettable powder and diluted with water before application.

rice = test: Water application, phytotoxicity on rice (Table 2); design: key: 0: no effect; 1: very slightly affected; 2: slightly affected; 3: moderately affected; 4: considerably affected; 5: completely killed; settings: 25 days, score 0-5
Source text: (§3) Wagner pots of 14 cm. in diameter, which had been packed with 1.5 kg. of paddy field soil, were brought into the state of paddy fields. To the pots were transplanted rice seedlings at the 3-leave stage. Further, seeds of barnyard grass (Echinochloa crus-galli) were sowed in the pots and required amounts of test compounds were applied to the soil under water lodged condition. 25 days after application, the degrees of herbicidal activity and phytotoxity were investigated on above-mentioned plants which had been transplanted and sowed, and on broad-leaved weeds, e.g., monochoria (Monochoria viaginalis Presl.), false pimpernel (Linderna pyxidaria) and toothcup (Rotala indica Koehue), which had been spontaneously germinated. The test compounds were used in the form of wettable powder. The herbicidal effects and the phytotoxity were evaluated as follows by the numerals ranging from 0 to 5.

[2] = system: barnyard grass (Echinochloa crus-galli); test: Water application, herbicidal effect on barnyard grass (Table 2); design: key: 0: not damaged; 5: completely killed; settings: 25 days, score 0-5
Source text: as §3

[3] = system: broad-leaved weeds, e.g., monochoria, false pimpernel and toothcup; test: Water application, herbicidal effect on broad-leaved weeds (Table 2); design: key: 0: not damaged; 5: completely killed; settings: 25 days, score 0-5
Source text: as §3

[4] = system: large crabgrass (Digitaria sanguinalis); test: Pre-emergence application, herbicidal effect on large crabgrass (Table 1); design: key: 0: not damaged; 5: completely killed; settings: 20 days after application, score 0-5
Source text: as §1, §2

[5] = system: redroot pigweed (Amaranthus retroflexus); test: Pre-emergence application, herbicidal effect on redroot pigweed (Table 1); design: key: 0: not damaged; 5: completely killed; settings: 20 days after application, score 0-5
Source text: as §1, §2

[6] = system: common purslane (Portulaca oleracea); test: Pre-emergence application, herbicidal effect on common purslane (Table 1); design: key: 0: not damaged; 5: completely killed; settings: 20 days after application, score 0-5
Source text: as §1, §2

radish = test: Pre-emergence application, herbicidal effect on radish (Table 1); design: key: 0: not damaged; 5: completely killed; settings: 20 days after application, score 0-5
Source text: as §1, §2

[7] = system: barnyard grass (Echinochloa crus-galli); test: Pre-emergence application, herbicidal effect on barnyard grass (Table 1); design: key: 0: not damaged; 5: completely killed; settings: 20 days after application, score 0-5
Source text: as §1, §2

Compound | Herbicidal effect, common lambsquarter ([1]; 10 g./a.) | Herbicidal effect, common lambsquarter ([1]; 20 g./a.) | Herbicidal effect, common lambsquarter ([1]; 40 g./a.) | Phytotoxicity on rice (rice; 10 g/a) | Phytotoxicity on rice (rice; 20 g/a) | Phytotoxicity on rice (rice; 40 g/a) | Herbicidal effects, barnyard grass ([2]; 10 g/a) | Herbicidal effects, barnyard grass ([2]; 20 g/a) | Herbicidal effects, barnyard grass ([2]; 40 g/a) | Herbicidal effects, broad-leaved weeds ([3]; 10 g/a) | Herbicidal effects, broad-leaved weeds ([3]; 20 g/a) | Herbicidal effects, broad-leaved weeds ([3]; 40 g/a) | Herbicidal effect, large crabgrass ([4]; 10 g./a.) | Herbicidal effect, large crabgrass ([4]; 20 g./a.) | Herbicidal effect, large crabgrass ([4]; 40 g./a.) | Herbicidal effect, redroot pigweed ([5]; 10 g./a.) | Herbicidal effect, redroot pigweed ([5]; 20 g./a.) | Herbicidal effect, redroot pigweed ([5]; 40 g./a.) | Herbicidal effect, common purslane ([6]; 10 g./a.) | Herbicidal effect, common purslane ([6]; 20 g./a.) | other results
CCOP(=O)(SCC)SCC(=O)N1CCCCC1C (stereo not drawn) [Compound 1] | 4 | 4 | 5 | 0 | 0 | 0 | 5 | 5 | 5 | 5 | 5 | 5 | 5 | 5 | 5 | 4 | 5 | 5 | 4 | 4 | Herbicidal effect, common purslane ([6]; 40 g./a.): 5; Herbicidal effect, radish (radish; 10 g./a.): 0; Herbicidal effect, radish (radish; 20 g./a.): 0; Herbicidal effect, radish (radish; 40 g./a.): 0; Herbicidal effect, barnyard grass ([7]; 10 g./a.): 5; Herbicidal effect, barnyard grass ([7]; 20 g./a.): 5; Herbicidal effect, barnyard grass ([7]; 40 g./a.): 5
CCCCOP(=O)(SCC)SCC(=O)N1CCCCC1C (stereo not drawn) [Compound 15] | 4 | 5 | 5 | 0 | 0 | 0 | 5 | 5 | 5 | 5 | 5 | 5 | 5 | 5 | 5 | 4 | 5 | 5 | 5 | 5 | Herbicidal effect, common purslane ([6]; 40 g./a.): 5; Herbicidal effect, radish (radish; 10 g./a.): 0; Herbicidal effect, radish (radish; 20 g./a.): 0; Herbicidal effect, radish (radish; 40 g./a.): 0; Herbicidal effect, barnyard grass ([7]; 10 g./a.): 5; Herbicidal effect, barnyard grass ([7]; 20 g./a.): 5; Herbicidal effect, barnyard grass ([7]; 40 g./a.): 5
CCCOP(=O)(SCCC)SCC(=O)N1CCCCC1C (stereo not drawn) [Compound 16, O,S-di-n-propyl-S-(2-methylpiperidinocarbamoylmethyl)phosphorodithiolate] | 4 | 4 | 5 | 0 | 0 | 0 | 5 | 5 | 5 | 5 | 5 | 5 | 5 | 5 | 5 | 4 | 4 | 4 | 4 | 4 | Herbicidal effect, common purslane ([6]; 40 g./a.): 4; Herbicidal effect, radish (radish; 10 g./a.): 0; Herbicidal effect, radish (radish; 20 g./a.): 0; Herbicidal effect, radish (radish; 40 g./a.): 0; Herbicidal effect, barnyard grass ([7]; 10 g./a.): 4; Herbicidal effect, barnyard grass ([7]; 20 g./a.): 4; Herbicidal effect, barnyard grass ([7]; 40 g./a.): 5
CCOP(=O)(SCC(=O)N1CCCC(C)C1)SC(C)C (stereo not drawn) [Compound 22] | 4 | 4 | 5 | 0 | 0 | 0 | 5 | 5 | 5 | 5 | 5 | 5 | 4 | 5 | 5 | 3 | 4 | 5 | 4 | 4 | Herbicidal effect, common purslane ([6]; 40 g./a.): 4; Herbicidal effect, radish (radish; 10 g./a.): 0; Herbicidal effect, radish (radish; 20 g./a.): 0; Herbicidal effect, radish (radish; 40 g./a.): 0; Herbicidal effect, barnyard grass ([7]; 10 g./a.): 4; Herbicidal effect, barnyard grass ([7]; 20 g./a.): 5; Herbicidal effect, barnyard grass ([7]; 40 g./a.): 5
